{"source": "patent US4906639A", "about": "“Cycloalkanol esters of dihydrolysergic acid” (Eli Lilly and Company, priority 1989, dated 1990)", "note": "Structures can show the parent of a compound that is named as a salt.", "data": [{"target": "T1, 5HT2 receptors (Rattus norvegicus, UniProt P14842)", "T1 construct": "their external jugular veins and thoracic aortas dissected free of connective tissue; from tissue; host or cells: isolated external jugular vein of male Wistar rats", "T1 sequence (P14842 whole entry)": "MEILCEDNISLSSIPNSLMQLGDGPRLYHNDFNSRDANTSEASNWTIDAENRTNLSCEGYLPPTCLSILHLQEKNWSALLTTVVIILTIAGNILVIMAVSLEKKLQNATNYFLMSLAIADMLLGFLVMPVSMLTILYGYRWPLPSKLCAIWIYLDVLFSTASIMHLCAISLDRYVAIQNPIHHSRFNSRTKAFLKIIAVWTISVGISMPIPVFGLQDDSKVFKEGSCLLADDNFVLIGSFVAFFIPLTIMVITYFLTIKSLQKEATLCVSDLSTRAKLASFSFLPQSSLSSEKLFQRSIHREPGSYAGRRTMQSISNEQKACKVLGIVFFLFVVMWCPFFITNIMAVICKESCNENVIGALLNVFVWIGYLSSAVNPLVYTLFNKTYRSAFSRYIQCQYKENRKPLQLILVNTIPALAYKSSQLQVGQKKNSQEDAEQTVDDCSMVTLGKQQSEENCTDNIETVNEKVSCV", "assay": "Apparent dissociation constants for 5HT2 receptors determined in the rat jugular vein (antagonism of contraction to serotonin)", "format": "cell-based, rat (male Wistar)", "conditions": "antagonist incubated one hour, agonist serotonin, 37° C., read-out: -log KB (apparent dissociation constant, negative logarithm) (converted)", "method": "An initial optimum resting force of 1 and 4 g was applied to the jugular vein and aorta, respectively. […] Exp. Ther., 205, 400 (1978). Alpha receptor antagonist activity was evaluated in the aorta.", "units": {"Kb": "nM"}, "values": [{"molecule": "CCN1C[C@H](C(=O)OC2CCCCC2)C[C@@H]2c3cccc4c3c(cn4C(C)C)C[C@H]21", "note": "[C2 H5, cyclohexyl, HCl, 1-Isopropyl-6-ethyl-8β-cyclohexyloxycarbonylergoline]", "Kb": 15.5}, {"molecule": "CC(C)n1cc2c3c(cccc31)[C@H]1C[C@@H](C(=O)OC3CCC(=O)CC3)CN(C)[C@@H]1C2", "note": "[CH3,4-oxocyclohexyl, maleate, 4-Oxocyclohexyl 1-isopropyl-9,10-dihydrolysergate]", "Kb": 0.0977}, {"molecule": "CC(C)n1cc2c3c(cccc31)[C@H]1C[C@@H](C(=O)OC3CCCCC3)CN(C)[C@@H]1C2", "note": "[CH3, cyclohexyl, maleate, cyclohexyl 1-isopropyl-9,10-dihydrolysergate maleate]", "Kb": 2.14}, {"molecule": "CCCN1C[C@H](C(=O)OC2CCCCC2)C[C@@H]2c3cccc4c3c(cn4C(C)C)C[C@H]21", "note": "[n-C3 H7, cyclohexyl, HCl]", "Kb": 85.1}, {"molecule": "CCCCN1C[C@H](C(=O)OC2CCCCC2)C[C@@H]2c3cccc4c3c(cn4C(C)C)C[C@H]21", "note": "[n-C4 H9, cyclohexyl, HCl, 1-Isopropyl-6-n-butyl-8β-cyclohexyloxycarbonyl ergoline hydrochloride]", "Kb": 39.8}]}, {"system": "5HT2 receptors", "assay": "not given", "conditions": "mediated by 5HT2 receptors; Cohen I; cited from earlier work", "values": [{"molecule": "CC(O)C(C)OC(=O)[C@@H]1C[C@@H]2c3cccc4c3c(cn4C(C)C)C[C@H]2N(C)C1", "note": "(stereo partly drawn) [LY53857, 1-isopropyl-6-methyl-8β-(1-methyl-2-hydroxy)propoxycarbonyl-5R-ergoline]", "antagonism of vascular contraction to serotonin": "potent antagonist"}]}]}
